Laboratory results taken from ChEMBL document CHEMBL1153342 (J Med Chem, 2009).
One block for each molecule: values may come before it.

Key:
[1] = biological target: T1, Serine/threonine-protein kinase pim-2 (Homo sapiens, UniProt Q9P1W9); experiment: Inhibition of Pim2
[2] = biological target: T2, Serine/threonine-protein kinase pim-1 (Homo sapiens, UniProt P11309); experiment: Inhibition of Pim1 in presence of 1 uM ATP
[3] = biological target: T2, Serine/threonine-protein kinase pim-1; experiment: Inhibition of Pim1 after 15 mins by scintillation counting-based competition assay in presence of 100 uM [gamma33P]ATP
[4] = biological target: T1, Serine/threonine-protein kinase pim-2; experiment: Inhibition of Pim2 in presence of 1 uM ATP
[5] = biological target: Casein kinase II subunit alpha (Homo sapiens) (UniProt P68400); experiment: Inhibition of CK2alpha1 at 10 uM
[6] = biological target: Casein kinase II subunit alpha' (Homo sapiens) (UniProt P19784); experiment: Inhibition of CK2alpha2 at 10 uM
[7] = Solubility at pH 7.4 after 48 hrs by HPLC; type: physicochemical; details: buffer
[8] = Solubility at pH 2.0 after 48 hrs by HPLC; type: physicochemical; details: buffer
[9] = Permeability from apical to basolateral side of human Caco-2 cells at 50 uM by LC/MS-MS analysis; type: ADME, cell-based; details: read-out: permeability
[10] = Permeability from basolateral to apical side of human Caco-2 cells at 50 uM by LC/MS-MS analysis; type: ADME, cell-based; details: read-out: permeability
[11] = Metabolic stability in human liver microsomes assessed as half life by HPLC; type: ADME, Microsome

SMILES: CN1CCCN(c2cccc(-c3cccc(/C=C/C(=O)O)c3)n2)CC1
IC50 [1]: 46 nM
IC50 [2]: 50 nM

SMILES: NCCCCNc1cncc(-c2cccc(/C=C/C(=O)O)c2)n1
IC50 [2]: 33 nM
IC50 [4]: 22 nM

SMILES: COC(=O)/C=C/c1cccc(-c2cncc(N3CCCN(C)CC3)n2)c1
inhibition [5]: 14%
inhibition [6]: 7%
IC50 [1]: > 8000 nM

SMILES: O=C(O)/C=C/c1cccc(-c2cncc(N3CCCNCC3)n2)c1
IC50 [1]: 10 nM

SMILES: CN1CCCN(c2cncc(-c3cccc(/C=C/C(N)=O)c3)n2)CC1
inhibition [5]: 42%
inhibition [6]: 36%

SMILES: CN1CCCN(c2cncc(-c3cccc(/C=C/C(=O)O)c3)n2)CC1
solubility at 48 h [7]: > 2000 µg/mL
solubility at 48 h [8]: > 2000 µg/mL
Papp A→B at 50 µM [9]: 2.73 ×10⁻⁶ cm/s
Papp B→A at 50 µM [10]: 3.01 ×10⁻⁶ cm/s
half-life [11]: 159 min

Further lines, results first:

IC50 [1]: 17 nM
SMILES: NCC1CCN(c2cncc(-c3cccc(/C=C/C(=O)O)c3)n2)CC1

IC50 [1]: 25 nM
SMILES: O=C(O)/C=C/c1cccc(-c2cncc(NCC3CCNCC3)n2)c1

IC50 [3]: 120 nM
SMILES: O=C(O)c1ccc(-c2cnc3ccc(NCC4CC4)nn23)cc1

IC50 [1]: 2200 nM
SMILES: O=C(O)/C=C/c1cccc(-c2cnccn2)c1

IC50 [2]: 370 nM
IC50 [4]: 480 nM
SMILES: COCCCNc1cncc(-c2cccc(/C=C/C(=O)O)c2)n1
